# Test results taken from article PMC9429672, “Structure and diffusive dynamics of aspartate α-decarboxylase (ADC) liganded with D-serine in aqueous solution” (Physical Chemistry Chemical Physics, 2022).
# Molecular target: T1, aspartate α-decarboxylase (ADC) (Escherichia coli, UniProt A0A4Y8GT61)
# T1 construct: gene panD; recombinant, purified from E. coli by earlier protocols; zymogen self-cleaved into alpha and beta chains, pyruvoyl cofactor at beta N-terminus; homotetramer
# Experiment: X-ray crystal structure of soaked crystal
# Type: binding
# Conditions: crystals in 1.8 M ammonium sulphate, 100 mM sodium citrate pH 4.5, D-serine soak about 2 min; active site; two ligand conformers (60% / 40% occupancy); inhibitor
structure (smiles),measurement,value
N[C@H](CO)C(=O)O [D-serine],X-ray crystal structure of soaked crystal,The crystal structure of ADC in complex with D-serine was determined
